In patent US20120070449A1, “METHODS OF TREATING INFLAMMATION” (Yeda Research And Development Co. Ltd., priority 2009, published 2012):

Legend:
T lymphocyte = settings: picomolar levels of CCL2; Flaishon et al. 2008, WO 2008/012796; cited from earlier work
CD151 [1] = experiment: CD151 cell surface expression on T cells (flow cytometry); format: cell-based, mouse; settings: CCL2 1 ng/ml
Procedure: Freshly isolated T cells were pre-incubated in the presence or absence of CCL2 (1 ng/ml, PeproTech) for several time periods (see the results section below). After incubation the cells were double stained with anti-CD3 (Pharmagene) and anti-CD151 (Santa Cruz) and the secondary antibody alexa goat anti rabbit (Invitrogene) was used. Expression of the stained proteins was analyzed by flow cytometry.

β-catenin = experiment: Detection of β-catenin phosphorylation in T cells; format: cell-based, mouse; settings: CCL2 1 ng/ml 10 minutes before activating anti-CD151 5 minutes, FIG. 4F
Procedure: 1×10^7 T cells were suspended in 1 ml RPMI medium containing 10% (v/v) FCS. The cells were stimulated with either 2 μg/ml anti-CD151 (Santa Cruz) or an isotype control antibody IgG rabbit anti mouse (ImmunoResearch Labs.inc). Thereafter, the cells were immediately placed at 37° C. for 5 minutes. Immediately after stimulation, the cells were fast frozen in liquid N2 and were lysed in lysis buffer containing: 25 mM Tris, pH 7.4; 2 mM Vanadate; 75 mM glycophosphate, pH 7.2; 2 mM EDTA; 2 mM EGTA; 10 mM NaPPi; and 0.5% NP-40, in the presence of the following protease inhibitors: 10 mg/ml Leupeptin; 10 mg/ml aprotinin; 10 mg/ml pepstatin; 10 mg/ml chymostatin (Roche); 1 mM PMSF (Sigma); and 20 mM N-etheyl-melamide (Sigma).
Protein G-Sepharose beads (GE Healthcare) were conjugated to Tyr (P) monoclonal antibody (Santa Cruz) for 2 hours at 4° C., followed by three washes in phosphate-buffered saline. Beads were added to the cell lysates and proteins were immunoprecipitated overnight. The protein G-bound material was washed three times with phosphate-buffered saline containing 0.1% SDS and 0.5% Nonidet P-40. Immunoprecipitates were separated by SDS-PAGE. The protein bands were transferred onto a nitrocellulose membrane and probed with anti β-cat (BD Transduction Laboratories) followed by horseradish peroxidase-conjugated anti-mouse IgG (Jackson ImmunoResearch Labs, West Grove, Pa.). […]

T cells = experiment: Cytoskeleton rearrangement: CCL21-induced actin polymerization (FITC-phalloidin, flow cytometry); format: cell-based, mouse
Procedure: T cells were pre-incubated in the presence or absence of CCL2 (1 ng/ml, PeproTech) for 1 hour and were then stimulated with CCL21 (SLC, 100 ng/ml, PeproTech). Cells were fixed by 3.7% formaldehyde solution (Merck) and cytoskeleton rearrangement was analyzed by flow cytometry following staining with fluorescein isothiocyanate (FITC)-phalloidin, as was previously described [Flaishon et al., J. Biol. Chem. (2001) 276: 46701-46706].
For CD151 activation leading to cytoskeletal rearrangement-T cells were pretreated with either 2 μg/ml of activating antibody specific for the extracellular domain of CD151 (Santa Cruz) or with an isotype control antibody IgG rabbit anti mouse (ImmunoResearch Labs.inc)/anti CUL1 (Santa Cruz) for 1 hour/20 hours.
For blocking CD151− T cells were pretreated for 1 hour with 10 μg/ml blocking anti-CD151 antibody (BD pharmingen) or with 10 μg/ml control antibody anti-IgG (ImmunoResearch Labs.inc)/anti KPL1 (Chemicon).
Next, a 100 ng/ml chemokine CCL21 (SLC, PeproTech) stimulation was carried out and the cells were fixed by 3.7% formaldehyde solution (Merck), permeabilized and stained with fluorescein isothiocyanate (FITC)-phalloidin, as was previously described [Flaishon et al., J. Biol. Chem. (2001) 276: 46701-46706]. Cytoskeleton rearrangement was analyzed by flow cytometry.
1×10^7 T cells were incubated in the presence or absence of CCL2 for 10 minutes, followed by stimulation with either activating anti-CD151 (Santa Cruz, 2 μg/ml) or an isotype control antibody IgG rabbit anti mouse (ImmunoResearch Labs.inc, 2 μg/ml) for 1 hour. The cells were then stimulated with CCL21 (100 ng/ml) and actin polymerization was analyzed.
Cells were fixed by 3.7% formaldehyde solution (Merck), and cytoskeleton rearrangement was analyzed by flow cytometry following staining with fluorescein isothiocyanate (FITC)-phalloidin, as was previously described [Flaishon et al. (2001), supra].

[2] = picomolar circulating CCL2; Flaishon et al. 2008, WO 2008/012796; cited from earlier work
CD151 [3] = experiment: CD151 mRNA expression in T cells (DNA chip array, RT-PCR, real-time PCR); format: cell-based, mouse
Procedure: (§1) 1×10^7 T cells from control C57BL/6 or CCR2−/− mice were suspended in 1 ml RPMI medium containing 10% (v/v) FCS. Next, 1 ng/ml of CCL2 (PeproTech) was added to half of the tubes (the other half was kept as a control), and the tubes were placed at 37° C. for different time periods (see the results section below). After incubation, the cells were washed and used for the different experiments.
Total RNA was isolated from cells using the Tri reagent kit (Molecular Research Center, Inc). Reverse transcription was carried out using Superscript II RT (Gibco-BRL) and the primers: […]
To obtain differential expression data of the T cells following CCL2 incubation, the differences between mRNA levels in this cell population were identified by screening mouse DNA chip arrays using the Affymatrix genechip expression analysis system (mouse 430 A2.0). The system consisted of two parameters: probe array and RNA target. Probe array included approximately 20,000 murine genes and ESTs. Each gene or EST was analyzed with approximately 20 pairs of specific, unique 25 mer-oligonucleotides probe. Each probe type was located in a specific area called probe cell. Each probe cell contained millions of copies of a given probe. All probe cells together made up the probe array (Affymetrix Genechip Expression Technical Manual). RNA from CCL2 treated T cells and from control T cells was converted to cDNA and then in vitro transcribed while labeled with biotin (see methods for RNA isolation and cells separation). The target RNA was hybridized to the probe array. The hybridized probe array was stained with streptavidin phycoerythrin conjugate and scanned by the GeneArray scanner. The amount of light emitted was proportional to the bound target at each location on the probe array. The two populations were compared according to the hybridization intensity in each cell.
mRNA levels of actin and CD151 were analyzed by quantitative real-time RT-PCR using a Light-Cycler instrument (Roche Diagnostics, Mannheim, Germany). […]

CD151/VLA4 complex = experiment: Co-immunoprecipitation of CD151 with β1 integrin (CD151/VLA4 complex); format: cell-based, mouse
Procedure: as §1
Stimulated frozen cells were lysed in lysis buffer containing: 25 mM Tris, pH 7.4; 2 mM Vanadate; 75 mM glycophosphate, pH 7.2; 2 mM EDTA; 2 mM EGTA; 10 mM NaPPi; and 0.5% NP-40, in the presence of the following protease inhibitors: 10 mg/ml Leupeptin; 10 mg/ml aprotinin; 10 mg/ml pepstatin; 10 mg/ml chymostatin (Roche); 1 mM PMSF (Sigma); and 20 mM N-etheyl-melamide (Sigma).
Protein G-Sepharose beads (GE Healthcare) were conjugated to Tyr (P) monoclonal antibody (Santa Cruz) or to anti-CD151 (Santa Cruz) for 2 hours at 4° C. followed by three washes in phosphate-buffered saline. Beads were added to the cell lysates and proteins were immunoprecipitated overnight. The protein G-bound material was washed three times with phosphate-buffered saline containing 0.1% SDS and 0.5% Nonidet P-40. Immunoprecipitates were separated by SDS-PAGE. […]

LFA-1 = experiment: Laminar flow adhesion assay: LFA-1 mediated adhesion to ICAM-1 triggered by CCL21; format: cell-based; settings: mouse T cells pre-treated, FIGS. 4G-J
Procedure: Purified ICAM-1-Fc (R&D Systems, Minneapolis, Minn.) were coated alone or with mouse CCL21 (R&D Systems) on polystyrene plates, as previously described [Grabovsky V et al. (2000) J Exp Med. 192, 495-506; Sigal A et al. (2000) J. Immunol. 165, 442-452]. The polystyrene plates were each assembled on the lower wall of the flow chamber as previously described [Feigelson S W et al. (2001) J Biol. Chem. 276, 13891-13901]. All flow experiments were conducted at 37° C.
Mouse T cells were purified and re-suspended in HBSS++ (HBSS, Mg^2+Ca^2+) with ICAM-1-Fc or mCCL2 for 1 hr. Cells were then perfused through the flow chamber at low shear stress (0.5-0.75 dyn/cm2) for 2 min. Tethers were defined as transient or rolling if cells attached briefly (less than 2 seconds) to the substrate, and as arrests if cells immediately arrested and remained stationary for at least 5 seconds of continuous flow. To assess adhesion strengthening, post arrest resistance to detachment over time was determined. Accumulated cells were subjected to a shear stress of 5 dyn/cm^2 for 10 minutes. At the indicated time points, the number of cells that remained bound was expressed relative to T cell population originally accumulated in the first 2 minutes of the assay.

CCL2: chemokine, also called Macrophage Chemotactic Protein-1 or MCP-1 (PeproTech), used at picomolar levels, 1 ng/ml
T lymphocyte homing to peripheral lymph nodes (T lymphocyte): inhibit T lymphocyte homing to peripheral lymph nodes
CD151 cell surface expression (CD151 [1]; CCR2-/- T cells, FIG. 1G): no change was detected
CD151 cell surface expression (CD151 [1]; control T cells, different time periods, FIGS. 1E-F): downregulated CD151 cell surface expression levels
β-catenin phosphorylation induced by CD151 activation (β-catenin): completely abolished
actin polymerization elevation induced by CD151 activation (T cells; CCR2-/- T cells, CCL2 10 minutes before activating anti-CD151, FIG. 4D): not apparent
CCL21-induced actin polymerization (T cells; control T cells, CCL2 1 ng/ml (pM levels) 1 hour, then CCL21 100 ng/ml, FIGS. 1A-B): suppressed actin polymerization
actin polymerization elevation induced by CD151 activation (T cells; control T cells, longer CCL2 incubation (20 hours), FIG. 4E): maintained
actin polymerization elevation induced by CD151 activation (T cells; control T cells, pM CCL2 10 minutes before activating anti-CD151 1 hour, then CCL21, FIG. 4C): completely abolished
progression of asthma and adjuvant arthritis [2]: attenuated progression of both asthma and adjuvant arthritis
transcription of CD151 (RT-PCR) (CD151 [3]; CCR2-/- T cells, pM CCL2, FIG. 1D): no inhibition was observed
differential gene expression of CD151 (DNA chip array) (CD151 [3]; T cells incubated 2 hours with CCL2): downregulated
transcription of CD151 (RT-PCR) (CD151 [3]; control naive T cells, pM CCL2, 1, 2 or 4 hours, FIG. 1C): downregulated following 2 and 4 hour incubations
CD151/VLA4 complex (β1 integrin pulled down with CD151) (CD151/VLA4 complex; CCR2-/- T cells incubated with CCL2, FIG. 4B): no effect
CD151/VLA4 complex (β1 integrin pulled down with CD151) (CD151/VLA4 complex; control T cells incubated with CCL2, several time periods, FIG. 4A): disappearance of the CD151/VLA4 complex
adhesion strengthening after arrest (resistance to detachment) (LFA-1; continuous/high shear stress): failed to remain firmly adhered
LFA-1 activation by surface bound CCL21 (arrest/accumulation on ICAM-1) (LFA-1; low shear stress): minor effect
